Test results taken from patent publication US9315544B2, “Method of treating eosinophilia by administering an immunomodulating peptide” (National Tsing Hua University, priority 2012, dated 2016).

Legend:
[1] = tested on: inflammatory cell recruitment into the airways; experiment: Differential cell counts in bronchoalveolar lavage fluid (BALF); assay type: in vivo, BALB/c mouse
Excerpt: (§1) FIG. 4 illustrates experimental design. All groups except control group were immunized with mite crude extract allergen on days 1 and 8, then mite crude extract allergen intratracheally on day 15 in all mite treated group, BALB/c mouse were divided into six groups (1) control group (PBS), (2) mites delivered intratracheally (mIT, mite on day 15) alone, (3) CMP intranasal (eIN, CMP on days 1 to 22) alone, (4) preventive-treatment group (eIN+mIT, CMP on days 1 to 14, mite on day 15) (5) therapy-treatment group (mIT+eIN, mite on day 15, CMP on days 15 to 22), and (6) preventive- and therapeutic-treatment group (eIN+mIT+eIN, CMP on days 1 to 22, mite on day 15).
FIG. 7 illustrates inhibitory effect of CMP on cell response in bronchoalveolar lavage fluid (BALF). BALF were collected from all experimental groups of mice. Cell populations were identified on air-dried cytocentrifuged smears after staining with Diff-Quuick stain. Differential cell counts were performed on a minimum of 300 cells to identify macrophages, eosinophils, segment or lymphocytes. Data represent one of three independent experiments. Each result was expressed as the mean±S.D., n=4. ***, P<0.001.
Mice were divided into six groups: 1) control (n=10), 2) mite crude extract allergen delivered intratracheally (mIT) alone (n=10), 3) CMP intranasal (eIN) alone (n=12), 4) preventive-treatment group (eIN+mIT; n=12), 5) therapeutic-treatment group (mIT+eIN; n=12), and 6) preventive- and therapeutic-treatment group (eIN+mIT+eIN; n=18) (FIG. 4). All groups receiving mIT were immunized with mite crude extract allergen on days 1 and 8 and then given mite crude extract allergen intratracheally on day 15. The cIN and eIN+mIT+eIN groups received cIN from days 1 to 22, the cIN+mIT group received eIN from days 1 to 15 (before mIT), and the mIT+eIN group received eIN from days 15 (post-mIT) to 22. All mice were sacrificed on day 23. The animal use protocol was reviewed and approved by Institutional Animal Care and Use Committee (IACUC Approval No: La-95279).
The trachea was exposed and cannulated. Two washings, each consisting of 1.0 ml of phosphate-buffered saline, were introduced into the lungs via the cannula and withdrawn to collect the cells. Bronchoalveolar lavage fluid (BALF) from each wash was placed in polypropylene tubes on ice. The collected BALF was then centrifuged at 300×g for 7 min at 4° C. […] Total cell numbers were counted on a hemocytometer, and 1−5×10^3 cells were spun onto glass microscope slides (cytospin, Shandon Scientific, Cheshire, UK). […] The number of cells recovered was calculated and expressed as absolute cell numbers.
To identify the extent of inflammatory cell recruitment into the airways under allergen challenge circumstance, the amount of inflammatory cell were measured in BALF. […]

[2] = tested on: IL-5; experiment: Cytokine ELISA of lung protein extract (IL-5); assay type: in vivo, BALB/c mouse; conditions: mIT+eIN, eIN+mIT+eIN and eIN+mIT groups
Excerpt: as §1
FIG. 9 illustrates inhibitory effect of CMP on lung protein extract. Lung protein extracts from different groups of mouse were assayed for the indicated cytokines. Data represent one of three independent experiments. Levels of CCL-11, IL-5, IL-13 and IL-17A/F levels in lung protein extracts from mouse from treatment groups were measured by Enzyme-linked immunosorbent assay (ELISA). Each result was expressed as the mean±S.D., n=4. **, P<0.01, ***, P<0.001. […]
Levels of cytokines from lung protein extract were measured by ELISA. […] The microplates were read at 450 nm with an ELISA reader (Thermo Labsystems, Waltham, Mass., USA). […]

NYRWRCKNQN (CMP)
lower: eosinophil count in BALF compared with mIT group ([1]; eIN+mIT group) | eosinophil count in BALF compared with mIT group ([1]; eIN+mIT+eIN group) | lymphocyte count in BALF compared with mIT group ([1]; eIN+mIT+eIN group) | macrophage count in BALF compared with mIT group ([1]; eIN+mIT+eIN group) | IL-5 levels in lung protein extract compared with mIT group [2]
